The source of these data is patent publication US20260216143A1, “PHARMACEUTICAL COMPOSITION FOR TREATING CHRONIC KIDNEY DISEASE” (priority 2020, published 2026).

Experiment [1] concerns Alport syndrome model (129-Col4a3tm 1Dec/J) mice. In words: Body weight of Alport syndrome (AS) mice (Example 2). Particulars: FIG. 16; groups receiving a DHA ethyl ester; p<0.01, t test. In kind it is in vivo, mouse. As to the method: Body weight was measured using a scale for animals twice weekly from the grouping day and daily from the day of the first animal death until the sampling day of each group.
Animals were restrained, and a test substance was administered directly into the stomach using a 1-mL syringe and a sonde (Fuchigami Kikai, CAT No. 5200). Administration was performed in accordance with the conditions described in Section 5.1., so that a volume of 5 mL/kg should be administered to each animal. The volume administered was calculated on the basis of the most recent (before the administration day) body weight.
The mean and standard error of the body weight and the wet weight of each organ were calculated for each study group. Further, each of the measured values was compared between the Group Number (2) and each of other groups. A statistical analysis add-in software “Excel Statistics 2015” (Social Survey Research Information Co., Ltd.) was used for statistical processing, and a significant difference was determined with a […] (p value)<0.05.

In experiment [2] the test system is Alport syndrome model (129-Col4a3tm1Dec/J) mice. Kind of experiment: Survival of Alport syndrome model mice, oral repeated administration (Example 1). In kind it is in vivo, mouse. To be noted: Pirespa 100 mg/kg/day, FIG. 1. As for the experimental part: Each test substance is orally and repeatedly administered to Alport syndrome model (129-Col4a3tm1Dec/J) mice for 10 weeks, and then a serum biochemistry test is performed. The kidneys are further observed histopathologically to examine the effect of administration of each test substance on the kidneys.
Test substances were prepared for each use before use on the experiment day. Candesartan was dissolved at a dose of 4 mg/mL in phosphate-buffered saline (hereinafter referred to as PBS) to prepare a dosing solution (10 mg/2.5 mL/kg) for Group Numbers 6 and 7. A solution was prepared by diluting this dosing solution with an equal amount of PBS as a dosing solution (10 mg/5 ml/kg) for Group Number 3. Pirespa was dissolved at a dose of 40 mg/mL in PBS and dissolved in PBS which was to be a dosing solution (50 mg/1.25 mL/kg) for Group Number 6. A solution was prepared by diluting this dosing solution with an equal amount of PBS as a dosing solution (50 mg/2.5 mL/kg) for Group Number 4. Lotriga was suspended at a dose of […] in a 0.5% methylcellulose solution (hereinafter referred to as MC) to prepare a dosing solution (1500 mg/2.5 mL/kg) for Group Number 7. […]
Animals were restrained, and a test substance was orally administered using a 1-mL syringe and a sonde. […] The volume administered was calculated on the basis of the most recent body weight. […]

Experiment [3] deals with Col4a3−/− mice. Particulars: cited from earlier work.
Experiment [4] has as its system Alport syndrome model (129-Col4a3tm1Dec/J) mice. In kind it is in vivo. Particulars: FIG. 4. As to the method:
(§1) The body weights of animals were measured at Day 45, blood was drawn from the caudal vena cava under anesthesia with isoflurane, and animals were euthanized by exsanguination. Death was confirmed by visually observing cardiopulmonary arrest (euthanasia). Then, the left and right kidneys, the left and right femurs, the left and right eyeballs, the cochlea, the heart, and the pancreas were collected and trimmed, and the wet weights of the left and right kidneys, the left and right femurs, and the heart were measured. Among the collected biotissues, the left and right femurs were immersed in a 70% ethanol solution. Other tissues were immersed in a 10% neutral buffered formalin solution. Of note, the right kidney was divided into two at the renal pelvis and immersed after to obtain kidney specimens.
The obtained blood was allowed to stand at room temperature for at least four hours and centrifuged under conditions of 4° C., 12000 rpm, and 3 min to obtain serum. Serum was divided into two tubes and frozen.
Blood biochemistry test items were measured using the frozen serum delegated to the external facility. The measurement items were total protein, albumin, blood urea nitrogen (BUN), creatinine (CRE), uric acid, sodium (Na), potassium (K), chloride (CI), calcium, phosphorus, amylase, lipase, AST (GOT), ALT (GPT), Y-GTP, LDH, triglyceride, total cholesterol, HDL cholesterol, total bilirubin, and glucose. Pooled specimens of each group were used for measurement.

Experiment [5] has the same test system. Kind of experiment: Body weight of Alport syndrome model mice (Example 1). In kind it is in vivo, mouse. To be noted: FIG. 2; body weight immediately before death used for dead mice; candesartan 10 mg/kg, Lotriga 1500 mg/kg.
Method: Body weight was measured using a scale for animals twice weekly from the grouping day and on the sampling day of each group.
Animals were restrained, and a test substance was orally administered using a 1-mL syringe and a sonde. Administration was performed in accordance with the conditions described in Section 5.1., so that a volume of approximately 0.1 mL should be administered to each animal. The volume administered was calculated on the basis of the most recent body weight. […] The administration interval was 6 hours or longer.
Of note, when the mean body weight was calculated, the body weight of a dead mouse was not assumed as zero, and the body weight measured immediately before death was used for calculation.
Experiment [6] shares this test system. Kind of experiment: Histopathological test of the kidneys: HE, PAS, MT, PAM staining and damage scoring (Example 1). The experiment is classed as in vivo, mouse. As to the method: as §1
The kidneys immersed in a 10% neutral buffered formalin solution were sent to the external facility, and Hematoxylin-Eosin (HE) staining, Periodic Acid-Schiff (PAS) staining, Masson's Trichrome (MT) staining, and Periodic Acid Methenamine silver (PAM) staining were performed for pathological assessment.
The severity of glomerular damage was assessed in each group of Alport syndrome model mice. Specifically, the severity was quantified for glomerulosclerosis, crescent formation, and basement membrane with a double contour with five levels (0, no change; 1, slight; 2, mild; 3, moderate; 4, severe. Refer to “Guidance on pathological diagnosis of diabetic nephropathy and hypertensive nephrosclerosis,” Tokyo Igakusha).
The severity of renal tubular damage was assessed in each group of Alport syndrome model mice. Specifically, the severity was quantified for renal tubular expansion accompanied by hyaline casts, interstitial fibrosis, inflammatory cell infiltration into the interstitium, and renal tubular expansion accompanied by cellular casts with five levels (0, no change; 1, slight; 2, mild; 3, moderate; 4, severe. Refer to “Guidance on pathological diagnosis of diabetic nephropathy and hypertensive nephrosclerosis,” Tokyo Igakusha).

Setting [7] is: serum, pooled specimens per group, Day 45.

As for `CC/C=C\C/C=C\C/C=C\C/C=C\C/C=C\C/C=C\CCC(=O)OCC` [DHA ethyl ester, docosahexaenoic acid ethyl ester], the “mean body weight vs untreated group” value in experiment [1] is given as “significantly increased as compared with the untreated group”.

`Cc1ccc(=O)n(-c2ccccc2)c1` [Pirespa]: the “survival (in words)” value in experiment [2] (up to Day 45, candesartan 10 mg/kg, Lotriga 1500 mg/kg) is recorded as “all mice died early”.

Take `CCOC(=O)[C@H](CCc1ccccc1)N[C@@H](C)C(=O)N1[C@H](C(=O)O)C[C@@H]2CCC[C@@H]21` [ramipril]: in experiment [3], the serum urea concentration entry is on record as “markedly decreased”, the survival time entry is recorded as “significantly prolonged” and the urine protein level entry is reported as “markedly decreased”.

Regarding `CCOc1nc2cccc(C(=O)OC(C)OC(=O)OC3CCCCC3)c2n1Cc1ccc(-c2ccccc2-c2nn[nH]n2)cc1` (stereo not drawn) [candesartan, Candesartan cilexetil], the survival rate in experiment [2] (Day 45 (end of study), candesartan 10 mg/kg once daily, Lotriga 1500 mg/kg once daily) was found to be 40%. In experiment [3], the serum urea concentration result is “markedly decreased”, the survival time entry is on record as “significantly prolonged” and the urine protein level result is recorded as “markedly decreased”. The “progression of renal failure” value in experiment [4] (judged from blood biochemistry) is recorded as “at a level comparable to that in the untreated group”. In experiment [4] (setting [7]), the BUN level entry is “very high and as high as in the untreated group”; the K level entry is on record as “development of hyperkalemia”; the creatinine level entry is “very high and as high as in the untreated group”. In experiment [5], the “changes with time in the mean body weight” value was “body weight loss began from 25 days after administration, and marked body weight loss was also observed in surviving mice”. In addition, the “kidney histopathology, HE staining findings” value in experiment [6] (FIG. 7) is “adhesion to the glomerulus due to glomerulosclerosis and crescent formation, renal tubular expansion, and lymphocyte infiltration into the interstitium were observed at various sites”. Further, in experiment [6] (FIG. 8), the “kidney histopathology, PAS staining findings” value was “glomerulosclerosis, in which PAS-positive substances were deposited on the mesangial substrate, and growth of crescent cells were observed”. The “kidney histopathology, MT staining (fibrosis)” value in experiment [6] (FIG. 9) is “Fibrosis was observed in an area of crescent hyperplasia and in the renal tubular interstitium”. Besides, the “kidney histopathology, PAM staining (double contour of the loop wall)” value in experiment [6] (FIG. 10) is given as “A double contour of the loop wall was observed”.
